Values joined by “and” are separate entries in the source; they are usually repeats but may differ in a detail not shown here. Equal values may be shown once.
Columns and labels:
Assay in all cases: radiometric filter-binding kinase assay, Kinase HotSpot
Conditions in all cases: compound 0.5 µM; ATP 10 µM
[1] = target: MKNK2 (human) (UniProt Q9HBH9)
[2] = target: STK33 (human) (UniProt Q9BYT3)
[3] = target: CAMKK2 (human) (UniProt Q96RR4)
[4] = target: AKT1 (human) (UniProt P31749)
[5] = test system: PRKCQ (human), Q04759 [P330L]
[6] = target: FER (human) (UniProt P16591)
Sequence of FER (human) (P16591 whole entry, looked up): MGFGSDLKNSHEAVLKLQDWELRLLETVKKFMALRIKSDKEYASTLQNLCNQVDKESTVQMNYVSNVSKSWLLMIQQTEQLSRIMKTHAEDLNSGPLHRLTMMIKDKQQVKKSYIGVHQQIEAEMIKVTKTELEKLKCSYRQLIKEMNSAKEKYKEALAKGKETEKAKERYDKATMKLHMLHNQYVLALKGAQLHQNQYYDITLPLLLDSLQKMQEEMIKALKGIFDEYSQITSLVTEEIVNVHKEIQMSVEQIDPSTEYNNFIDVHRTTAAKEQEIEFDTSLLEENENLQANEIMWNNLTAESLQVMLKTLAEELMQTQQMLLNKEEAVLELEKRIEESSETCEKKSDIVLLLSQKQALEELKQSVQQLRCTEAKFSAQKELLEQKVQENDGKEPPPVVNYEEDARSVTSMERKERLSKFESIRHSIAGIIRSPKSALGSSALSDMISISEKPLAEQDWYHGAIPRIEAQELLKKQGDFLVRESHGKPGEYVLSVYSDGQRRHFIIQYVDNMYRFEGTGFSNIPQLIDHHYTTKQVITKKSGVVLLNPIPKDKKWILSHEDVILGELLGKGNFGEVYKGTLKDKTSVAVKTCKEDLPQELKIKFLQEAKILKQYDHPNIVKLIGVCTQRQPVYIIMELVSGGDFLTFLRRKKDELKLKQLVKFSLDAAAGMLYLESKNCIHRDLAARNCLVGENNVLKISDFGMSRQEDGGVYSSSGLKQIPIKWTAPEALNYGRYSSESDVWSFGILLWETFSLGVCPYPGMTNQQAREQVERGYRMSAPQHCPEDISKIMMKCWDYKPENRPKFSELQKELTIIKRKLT

[7] = target: MAPK10 (human) (UniProt P53779)
[8] = target: DYRK2 (human) (UniProt Q92630)
[9] = target: PRKCA (human) (UniProt P17252)
[10] = target: MAPK8 (human) (UniProt P45983)
[11] = target: CSNK1G3 (human) (UniProt Q9Y6M4)
[12] = target: PKN1 (human) (UniProt Q16512)
Sequence of PKN1 (human) (Q16512 whole entry, looked up): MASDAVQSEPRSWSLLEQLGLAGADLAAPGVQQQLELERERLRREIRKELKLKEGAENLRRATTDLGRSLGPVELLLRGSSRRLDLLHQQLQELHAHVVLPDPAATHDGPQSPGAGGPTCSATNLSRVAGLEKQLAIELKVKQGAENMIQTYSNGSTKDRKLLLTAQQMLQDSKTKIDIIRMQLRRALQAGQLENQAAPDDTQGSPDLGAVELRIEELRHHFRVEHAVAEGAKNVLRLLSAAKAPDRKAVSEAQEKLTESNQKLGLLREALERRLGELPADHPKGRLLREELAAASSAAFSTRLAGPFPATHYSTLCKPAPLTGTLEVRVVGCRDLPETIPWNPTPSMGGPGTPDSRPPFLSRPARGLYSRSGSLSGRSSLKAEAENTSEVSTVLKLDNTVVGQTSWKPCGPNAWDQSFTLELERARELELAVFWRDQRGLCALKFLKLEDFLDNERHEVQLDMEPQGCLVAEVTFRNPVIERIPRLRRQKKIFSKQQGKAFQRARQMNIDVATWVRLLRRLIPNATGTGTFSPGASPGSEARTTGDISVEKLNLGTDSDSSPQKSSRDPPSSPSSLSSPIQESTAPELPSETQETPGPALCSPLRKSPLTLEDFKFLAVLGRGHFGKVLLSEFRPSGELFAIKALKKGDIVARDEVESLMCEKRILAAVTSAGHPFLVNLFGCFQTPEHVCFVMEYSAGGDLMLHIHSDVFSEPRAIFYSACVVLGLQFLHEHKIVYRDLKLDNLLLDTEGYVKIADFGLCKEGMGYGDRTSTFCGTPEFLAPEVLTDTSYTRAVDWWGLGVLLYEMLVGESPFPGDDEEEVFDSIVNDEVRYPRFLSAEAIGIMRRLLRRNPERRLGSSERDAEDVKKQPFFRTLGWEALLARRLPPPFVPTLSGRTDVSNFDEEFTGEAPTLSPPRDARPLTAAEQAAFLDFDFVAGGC

[13] = target: NTRK2 (human) (UniProt Q16620)
[14] = target: FGFR3 (human) (UniProt P22607)
[15] = target: FYN (human) (UniProt P06241)
[16] = target: FLT1 (human) (UniProt P17948)
Sequence of FLT1 (human) (P17948 whole entry, looked up): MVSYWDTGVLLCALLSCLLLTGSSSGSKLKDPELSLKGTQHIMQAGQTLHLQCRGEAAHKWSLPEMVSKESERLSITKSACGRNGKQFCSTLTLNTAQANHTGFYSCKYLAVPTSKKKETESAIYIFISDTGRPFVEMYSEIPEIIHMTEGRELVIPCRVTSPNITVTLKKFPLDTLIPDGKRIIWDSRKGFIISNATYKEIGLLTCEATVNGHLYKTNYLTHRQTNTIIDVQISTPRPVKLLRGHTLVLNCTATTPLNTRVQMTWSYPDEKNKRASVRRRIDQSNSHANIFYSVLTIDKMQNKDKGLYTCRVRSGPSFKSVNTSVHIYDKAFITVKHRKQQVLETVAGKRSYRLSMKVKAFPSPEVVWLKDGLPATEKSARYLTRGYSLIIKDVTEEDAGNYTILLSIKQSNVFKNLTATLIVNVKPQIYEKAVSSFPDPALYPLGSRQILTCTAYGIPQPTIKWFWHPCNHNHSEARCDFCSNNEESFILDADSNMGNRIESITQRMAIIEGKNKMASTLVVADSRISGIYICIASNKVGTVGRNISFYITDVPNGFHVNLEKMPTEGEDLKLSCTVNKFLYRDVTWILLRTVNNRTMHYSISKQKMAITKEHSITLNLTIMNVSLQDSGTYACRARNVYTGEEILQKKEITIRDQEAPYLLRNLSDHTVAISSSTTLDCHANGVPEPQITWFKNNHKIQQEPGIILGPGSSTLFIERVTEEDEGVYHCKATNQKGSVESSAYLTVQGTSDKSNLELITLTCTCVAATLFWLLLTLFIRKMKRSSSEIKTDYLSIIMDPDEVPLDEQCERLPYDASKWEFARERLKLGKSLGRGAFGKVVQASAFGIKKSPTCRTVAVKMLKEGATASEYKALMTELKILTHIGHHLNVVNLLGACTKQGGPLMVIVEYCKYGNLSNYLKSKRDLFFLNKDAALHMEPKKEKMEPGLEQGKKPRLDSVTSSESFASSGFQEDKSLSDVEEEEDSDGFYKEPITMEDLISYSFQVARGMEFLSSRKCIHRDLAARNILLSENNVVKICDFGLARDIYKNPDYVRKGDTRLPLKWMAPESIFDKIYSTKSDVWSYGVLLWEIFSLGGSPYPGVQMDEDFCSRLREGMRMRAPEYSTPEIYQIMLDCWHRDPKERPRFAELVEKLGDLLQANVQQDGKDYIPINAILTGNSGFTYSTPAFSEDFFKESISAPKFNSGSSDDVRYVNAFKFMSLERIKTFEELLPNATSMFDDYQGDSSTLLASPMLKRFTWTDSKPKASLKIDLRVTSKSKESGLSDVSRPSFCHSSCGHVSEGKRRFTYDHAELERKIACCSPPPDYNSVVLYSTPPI

[17] = target: CDK5 CDK5R1 p35 (human) (UniProt Q00535+Q15078)
[18] = target: TTK (human) (UniProt P33981)
[19] = target: CDK7 CCNH MNAT1 (human) (UniProt P50613+P51948+P51946)
[20] = target: PIM3 (human) (UniProt Q86V86)
[21] = target: DYRK1A (human) (UniProt Q13627)
[22] = target: NEK4 (human) (UniProt P51957)
[23] = target: MAPK1 (human) (UniProt P28482)
[24] = target: CAMK2A (human) (UniProt Q9UQM7)
[25] = target: PRKCB2 (human) (UniProt P05771)
[26] = target: MST1R (human) (UniProt Q04912)
[27] = target: RAF1 (human) (UniProt P04049)
[28] = target: TYK2 JH1 catalytic (human) (UniProt P29597)
[29] = target: PRKCG (human) (UniProt P05129)
[30] = target: LYN (human) (UniProt P07948)
Sequence of LYN (human) (P07948 whole entry, looked up): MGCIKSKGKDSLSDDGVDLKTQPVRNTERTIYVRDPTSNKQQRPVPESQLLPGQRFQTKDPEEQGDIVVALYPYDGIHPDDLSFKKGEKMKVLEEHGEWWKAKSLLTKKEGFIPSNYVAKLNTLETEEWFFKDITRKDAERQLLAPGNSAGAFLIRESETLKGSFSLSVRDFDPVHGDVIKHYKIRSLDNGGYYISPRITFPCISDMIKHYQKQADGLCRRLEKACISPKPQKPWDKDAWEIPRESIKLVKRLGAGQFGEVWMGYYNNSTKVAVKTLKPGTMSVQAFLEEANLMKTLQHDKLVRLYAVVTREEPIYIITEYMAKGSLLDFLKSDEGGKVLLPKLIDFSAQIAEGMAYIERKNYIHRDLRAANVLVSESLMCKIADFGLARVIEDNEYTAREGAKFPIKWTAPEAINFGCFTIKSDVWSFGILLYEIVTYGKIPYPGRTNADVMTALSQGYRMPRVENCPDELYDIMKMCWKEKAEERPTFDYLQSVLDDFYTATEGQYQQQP

[31] = target: CAMK1D (human) (UniProt Q8IU85)
[32] = target: RPS6KA2 KD1 KD2 (human) (UniProt Q15349)
[33] = target: MAPK14 (human) (UniProt Q16539)
[34] = target: PAK1 (human) (UniProt Q13153)
[35] = target: EPHB4 (human) (UniProt P54760)
[36] = target: DAPK3 (human) (UniProt O43293)
[37] = target: JAK2 JH1 JH2 (human) (UniProt O60674)
[38] = target: FGFR2 (human) (UniProt P21802)
[39] = target: CSNK1A1 (human) (UniProt P48729)
Sequence of CSNK1A1 (human) (P48729 whole entry, looked up): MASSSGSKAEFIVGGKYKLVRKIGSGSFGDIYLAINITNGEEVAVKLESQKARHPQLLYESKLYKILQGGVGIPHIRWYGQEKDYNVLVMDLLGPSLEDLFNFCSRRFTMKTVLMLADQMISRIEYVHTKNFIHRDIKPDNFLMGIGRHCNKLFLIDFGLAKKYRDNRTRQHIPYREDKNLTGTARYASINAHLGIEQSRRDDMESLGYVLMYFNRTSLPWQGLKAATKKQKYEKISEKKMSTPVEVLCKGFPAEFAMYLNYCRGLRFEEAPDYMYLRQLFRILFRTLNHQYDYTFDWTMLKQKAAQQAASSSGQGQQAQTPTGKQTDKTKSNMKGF

[40] = target: CDK2 CCNE1 (human) (UniProt P24941+P24864)
[41] = target: CAMKK1 (human) (UniProt Q8N5S9)

Sequence of CAMKK2 (human) (Q96RR4 whole entry, looked up): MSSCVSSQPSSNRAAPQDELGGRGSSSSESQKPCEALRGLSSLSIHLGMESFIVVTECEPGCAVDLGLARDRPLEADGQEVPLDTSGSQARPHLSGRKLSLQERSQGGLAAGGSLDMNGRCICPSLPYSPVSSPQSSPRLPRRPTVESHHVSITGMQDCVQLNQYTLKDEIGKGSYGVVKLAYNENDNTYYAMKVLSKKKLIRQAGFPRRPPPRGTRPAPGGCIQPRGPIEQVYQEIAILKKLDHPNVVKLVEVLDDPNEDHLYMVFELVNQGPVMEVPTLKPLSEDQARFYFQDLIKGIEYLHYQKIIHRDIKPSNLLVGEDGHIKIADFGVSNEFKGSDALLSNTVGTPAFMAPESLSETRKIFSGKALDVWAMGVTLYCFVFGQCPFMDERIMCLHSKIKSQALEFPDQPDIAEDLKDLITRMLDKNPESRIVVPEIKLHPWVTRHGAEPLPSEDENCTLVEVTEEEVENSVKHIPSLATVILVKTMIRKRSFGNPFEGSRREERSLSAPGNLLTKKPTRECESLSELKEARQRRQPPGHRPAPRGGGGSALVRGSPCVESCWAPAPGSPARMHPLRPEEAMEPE
Sequence of AKT1 (human) (P31749 whole entry, looked up): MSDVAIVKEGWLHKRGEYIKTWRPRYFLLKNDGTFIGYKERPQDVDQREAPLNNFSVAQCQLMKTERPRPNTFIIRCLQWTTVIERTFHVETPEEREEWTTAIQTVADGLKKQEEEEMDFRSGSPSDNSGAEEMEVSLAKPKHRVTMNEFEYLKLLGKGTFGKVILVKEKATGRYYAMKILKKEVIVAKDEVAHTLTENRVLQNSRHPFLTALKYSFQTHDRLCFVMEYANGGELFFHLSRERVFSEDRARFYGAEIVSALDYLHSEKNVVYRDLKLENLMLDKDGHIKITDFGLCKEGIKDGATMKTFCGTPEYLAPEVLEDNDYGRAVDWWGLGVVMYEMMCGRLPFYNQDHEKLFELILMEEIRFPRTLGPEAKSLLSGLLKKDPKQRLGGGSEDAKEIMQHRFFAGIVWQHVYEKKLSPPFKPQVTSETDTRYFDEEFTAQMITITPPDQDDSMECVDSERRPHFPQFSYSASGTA

Question: `CN(C)c1ccc(/C=C2\C(=O)Nc3ccccc32)cc1` was tested. Which residual activity [1] did it give?
Answer: 90.5%

Question: What about the residual activity [2] of the same compound?
Answer: 99.8%

Question: And the residual activity [3]?
Answer: 100%

Question: What about the residual activity [4] of the same compound?
Answer: 101%

Question: And the residual activity [5]?
Answer: 104%

Question: What about the residual activity [6] of the same compound?
Answer: 94.5%

Question: What about the residual activity [7] of the same compound?
Answer: 82.9%

Question: What about the residual activity [8] of the same compound?
Answer: 100%

Question: What about the residual activity [9] of the same compound?
Answer: 94.5%

Question: What about the residual activity [10] of the same compound?
Answer: 103%

Question: What about the residual activity [11] of the same compound?
Answer: 101%

Question: What about the residual activity [12] of the same compound?
Answer: 98.4%

Question: What about the residual activity [13] of the same compound?
Answer: 54.8%

Question: And the residual activity [14]?
Answer: 96.3%

Question: And the residual activity [15]?
Answer: 104%

Question: And the residual activity [16]?
Answer: 92%

Question: What about the residual activity [17] of the same compound?
Answer: 104%

Question: And the residual activity [18]?
Answer: 99.7%

Question: And the residual activity [19]?
Answer: 99.4%

Question: And the residual activity [20]?
Answer: 102%

Question: And the residual activity [21]?
Answer: 103%

Question: And the residual activity [22]?
Answer: 102%

Question: What about the residual activity [23] of the same compound?
Answer: 96.4%

Question: What about the residual activity [24] of the same compound?
Answer: 106%

Question: What about the residual activity [25] of the same compound?
Answer: 103%

Question: What about the residual activity [26] of the same compound?
Answer: 106%

Question: And the residual activity [27]?
Answer: 101%

Question: What about the residual activity [28] of the same compound?
Answer: 103%

Question: What about the residual activity [29] of the same compound?
Answer: 96.8%

Question: And the residual activity [30]?
Answer: 108% and 97.8%

Question: What about the residual activity [31] of the same compound?
Answer: 98.8%

Question: And the residual activity [32]?
Answer: 89.1%

Question: What about the residual activity [33] of the same compound?
Answer: 92.4%

Question: What about the residual activity [34] of the same compound?
Answer: 95.7%

Question: And the residual activity [35]?
Answer: 97.4%

Question: And the residual activity [36]?
Answer: 101%

Question: What about the residual activity [37] of the same compound?
Answer: 94.8%

Question: And the residual activity [38]?
Answer: 98.2%

Question: What about the residual activity [39] of the same compound?
Answer: 105%

Question: And the residual activity [40]?
Answer: 97.1%

Question: What about the residual activity [41] of the same compound?
Answer: 98.6%

Question: `O=C1C(Cl)=C(N2C(=O)CCC2=O)C(=O)c2ccccc21` was tested. Which residual activity [1] did it give?
Answer: 84.5%

Question: What about the residual activity [2] of the same compound?
Answer: 91.5%

Question: And the residual activity [3]?
Answer: 86.1%

Question: And the residual activity [4]?
Answer: 103%

Question: And the residual activity [5]?
Answer: 114%

Question: What about the residual activity [6] of the same compound?
Answer: 103%

Question: What about the residual activity [7] of the same compound?
Answer: 93.6%

Question: What about the residual activity [8] of the same compound?
Answer: 98.6%

Question: And the residual activity [9]?
Answer: 99.1%

Question: And the residual activity [10]?
Answer: 122%

Question: What about the residual activity [11] of the same compound?
Answer: 93.5%

Question: And the residual activity [12]?
Answer: 108%

Question: What about the residual activity [13] of the same compound?
Answer: 104%

Question: And the residual activity [14]?
Answer: 106%

Question: And the residual activity [15]?
Answer: 111%

Question: And the residual activity [16]?
Answer: 87.8%

Question: And the residual activity [17]?
Answer: 93.7%

Question: What about the residual activity [18] of the same compound?
Answer: 108%

Question: What about the residual activity [19] of the same compound?
Answer: 101%

Question: And the residual activity [20]?
Answer: 101%

Question: What about the residual activity [21] of the same compound?
Answer: 99.1%

Question: What about the residual activity [22] of the same compound?
Answer: 99.6%

Question: What about the residual activity [23] of the same compound?
Answer: 73.6%

Question: And the residual activity [24]?
Answer: 89.6%

Question: And the residual activity [25]?
Answer: 108%

Question: And the residual activity [26]?
Answer: 94.5%

Question: What about the residual activity [27] of the same compound?
Answer: 93%

Question: What about the residual activity [28] of the same compound?
Answer: 102%

Question: And the residual activity [29]?
Answer: 97.5%

Question: And the residual activity [30]?
Answer: 93.5% and 97%

Question: And the residual activity [31]?
Answer: 102%

Question: And the residual activity [32]?
Answer: 104%

Question: What about the residual activity [33] of the same compound?
Answer: 88.1%

Question: What about the residual activity [34] of the same compound?
Answer: 96.3%

Question: And the residual activity [35]?
Answer: 98.7%

Question: And the residual activity [36]?
Answer: 114%

Question: And the residual activity [37]?
Answer: 104%

Question: What about the residual activity [38] of the same compound?
Answer: 102%

Question: What about the residual activity [39] of the same compound?
Answer: 99.2%

Question: What about the residual activity [40] of the same compound?
Answer: 90.3%

Question: What about the residual activity [41] of the same compound?
Answer: 112%
